Test results: patent US11872202B2, “Pleuromutilin cinnamic acid ester compounds with activities against antibiotic-resistant infections” (SHAANXI UNIVERSITY OF SCIENCE AND TECHNOLOGY, priority 2021, dated 2024)
In brackets after ≈: the same amount, converted by molar mass. Like-named read-outs stand apart in the source and are kept apart here.

Key:
Test in all cases: MIC, micro-broth dilution method
Type in all cases: cell-based
[1] = system: Acinetobacter baumannii ATCC19606
Description: (§1) The minimum inhibitory concentration (MIC) of pleuromutilin cinnamate easters and their starting materials was tested by a micro-broth dilution method, with retamoline, vornimulin and tiamulin as positive controls.
(§2) The experimental strains included Gram-positive bacteria: Methicillin-sensitive Staphylococcus epidermidis ATCC12228, Staphylococcus aureus ATCC29213 and ATCC25923, and Methicillin-resistant Staphylococcus aureus ATCC33591; Gram-negative bacteria: Acinetobacter baumannii ATCC19606 and E. coli Bacillus ATCC25922 (the strains used were from the American type culture collection (ATCC)).

[2] = system: Escherichia coli ATCC25922
Description: as §1, §2

[3] = system: Methicillin-resistant Staphylococcus aureus ATCC33591
Description: as §1, §2

[4] = system: Methicillin-sensitive Staphylococcus epidermidis ATCC12228; details: for inhibitory effect compared with the three tested positive controls: methicillin-sensitive Staphylococcus epidermidis, statement in words from Table 1
Description: as §1, §2

[5] = system: Staphylococcus aureus ATCC25923
Description: as §1, §2

[6] = system: Staphylococcus aureus ATCC29213
Description: as §1, §2

[7] = Acinetobacter baumannii, ATCC19606, read-out: Minimum inhibitory concentration
[8] = Escherichia coli, ATCC25922, read-out: Minimum inhibitory concentration
[9] = Staphylococcus aureus, ATCC33591, read-out: Minimum inhibitory concentration
[10] = Staphylococcus epidermidis, ATCC12228, read-out: Minimum inhibitory concentration
[11] = Staphylococcus aureus, ATCC25923, read-out: Minimum inhibitory concentration
[12] = Staphylococcus aureus, ATCC29213, read-out: Minimum inhibitory concentration
[13] = Acinetobacter baumannii ATCC19606, 37° C., 20-22 h, read-out: Minimum inhibitory concentration
[14] = Escherichia coli ATCC25922, 37° C., 20-22 h, read-out: Minimum inhibitory concentration
[15] = Methicillin-resistant Staphylococcus aureus ATCC33591, 37° C., 20-22 h, read-out: Minimum inhibitory concentration
[16] = Methicillin-sensitive Staphylococcus epidermidis ATCC12228, 37° C., 20-22 h, read-out: Minimum inhibitory concentration
[17] = Staphylococcus aureus ATCC25923, 37° C., 20-22 h, read-out: Minimum inhibitory concentration
[18] = Staphylococcus aureus ATCC29213, 37° C., 20-22 h, read-out: Minimum inhibitory concentration

MIC [1, 13]	MIC [2, 14]	MIC [3, 15]	MIC [4, 16]	MIC [5, 17]	MIC [6, 18]	SMILES	MIC [1, 7]	MIC [2, 8]	MIC [3, 9]	MIC [4, 10]	MIC [5, 11]	MIC [6, 12]	inhibitory effect compared with the three tested positive controls [4]	inhibition compared with tiamulin ([1]; Acinetobacter baumannii, statement in words from Table 1)
						C=C[C@]1(C)C[C@@H](OC(=O)CSC(C)(C)CNC(=O)[C@H](N)C(C)C)[C@]2(C)[C@H](C)CC[C@]3(CCC(=O)[C@H]32)[C@@H](C)[C@@H]1O [Valnemulin, reference compound]	2 µg/mL (≈ 3.54 µM)	16 µg/mL (≈ 28.3 µM)	> 256 µg/mL	64 µg/mL (≈ 113 µM)	4 µg/mL (≈ 7.08 µM)	2 µg/mL (≈ 3.54 µM)		
> 256 µg/mL	64 µg/mL (≈ 113 µM)	32 µg/mL (≈ 56.3 µM)	16 µg/mL (≈ 28.1 µM)	4 µg/mL (≈ 7.03 µM)	8 µg/mL (≈ 14.1 µM)	C=C[C@]1(C)C[C@@H](OC(=O)COC(=O)/C=C/c2ccc(OC)c(OC)c2)[C@]2(C)[C@H](C)CC[C@]3(CCC(=O)[C@H]32)[C@@H](C)[C@@H]1O [Compound 7, (E)-2-(((3aR,4R,5R,8S,9R,12R)-8-hydroxy-4,7,9,12-tetramethyl-3-oxo-7-vinyldecahydro-4,9a-propanocyclopenta[8]annulen-5-yl)oxy)-2-oxoethyl 3-(3,4-dimethoxyphenyl)acrylate]								
128 µg/mL (≈ 236 µM)	64 µg/mL (≈ 118 µM)	32 µg/mL (≈ 58.9 µM)	8 µg/mL (≈ 14.7 µM)	16 µg/mL (≈ 29.5 µM)	32 µg/mL (≈ 58.9 µM)	C=C[C@]1(C)C[C@@H](OC(=O)COC(=O)/C=C/c2cccc(Cl)c2)[C@]2(C)[C@H](C)CC[C@]3(CCC(=O)[C@H]32)[C@@H](C)[C@@H]1O [Compound 2, (E)-2-(((3aR,4R,5R,8S,9R,12R)-8-hydroxy-4,7,9,12-tetramethyl-3-oxo-7-vinyldecahydro-4,9a-propanocyclopenta[8]annulen-5-yl)oxy)-2-oxoethyl 3-(3-chlorophenyl)acrylate]							better than that of the positive controls	
> 256 µg/mL	> 256 µg/mL	64 µg/mL (≈ 122 µM)	32 µg/mL (≈ 60.8 µM)	16 µg/mL (≈ 30.4 µM)	32 µg/mL (≈ 60.8 µM)	C=C[C@]1(C)C[C@@H](OC(=O)COC(=O)/C=C/c2cccc(F)c2)[C@]2(C)[C@H](C)CC[C@]3(CCC(=O)[C@H]32)[C@@H](C)[C@@H]1O [Compound 8, (E)-2-(((3aR,4R,5R,8S,9R,12R)-8-hydroxy-4,7,9,12-tetramethyl-3-oxo-7-vinyldecahydro-4,9a-propanocyclopenta[8]annulen-5-yl)oxy)-2-oxoethyl 3-(3-fluorophenyl)acrylate]								
128 µg/mL (≈ 222 µM)	64 µg/mL (≈ 111 µM)	256 µg/mL (≈ 444 µM)	64 µg/mL (≈ 111 µM)	32 µg/mL (≈ 55.5 µM)	64 µg/mL (≈ 111 µM)	C=C[C@]1(C)C[C@@H](OC(=O)COC(=O)/C=C/c2cccc(C(F)(F)F)c2)[C@]2(C)[C@H](C)CC[C@]3(CCC(=O)[C@H]32)[C@@H](C)[C@@H]1O [Compound 16, (E)-2-(((3aR,4R,5R,8S,9R,12R)-8-hydroxy-4,7,9,12-tetramethyl-3-oxo-7-vinyldecahydro-4,9a-propanocyclopenta[8]annulen-5-yl)oxy)-2-oxoethyl 3-(3-(trifluoromethyl)phenyl)acrylate]								
128 µg/mL (≈ 217 µM)	64 µg/mL (≈ 109 µM)	32 µg/mL (≈ 54.4 µM)	16 µg/mL (≈ 27.2 µM)	8 µg/mL (≈ 13.6 µM)	16 µg/mL (≈ 27.2 µM)	C=C[C@]1(C)C[C@@H](OC(=O)COC(=O)/C=C/c2ccc(Cn3ccnc3)cc2)[C@]2(C)[C@H](C)CC[C@]3(CCC(=O)[C@H]32)[C@@H](C)[C@@H]1O [Compound 17]								
128 µg/mL (≈ 211 µM)	64 µg/mL (≈ 106 µM)	64 µg/mL (≈ 106 µM)	64 µg/mL (≈ 106 µM)	16 µg/mL (≈ 26.4 µM)	32 µg/mL (≈ 52.8 µM)	C=C[C@]1(C)C[C@@H](OC(=O)COC(=O)/C=C/c2cc(Br)ccc2F)[C@]2(C)[C@H](C)CC[C@]3(CCC(=O)[C@H]32)[C@@H](C)[C@@H]1O [Compound 9, (E)-2-(((3aR,4R,5R,8S,9R,12R)-8-hydroxy-4,7,9,12-tetramethyl-3-oxo-7-vinyldecahydro-4,9a-propanocyclopenta[8]annulen-5-yl)oxy)-2-oxoethyl 3-(5-bromo-2-fluorophenyl)acrylate]								
						C=C[C@]1(C)C[C@@H](OC(=O)CS[C@@H]2C[C@H]3CC[C@@H](C2)N3C)[C@]2(C)[C@H](C)CC[C@]3(CCC(=O)[C@H]32)[C@@H](C)[C@@H]1O [Retapamulin, reference compound]	16 µg/mL (≈ 30.9 µM)	32 µg/mL (≈ 61.8 µM)	32 µg/mL (≈ 61.8 µM)	32 µg/mL (≈ 61.8 µM)	4 µg/mL (≈ 7.73 µM)	4 µg/mL (≈ 7.73 µM)		
256 µg/mL (≈ 458 µM)	256 µg/mL (≈ 458 µM)	128 µg/mL (≈ 229 µM)	32 µg/mL (≈ 57.3 µM)	16 µg/mL (≈ 28.6 µM)	32 µg/mL (≈ 57.3 µM)	C=C[C@]1(C)C[C@@H](OC(=O)COC(=O)/C=C/c2ccc3ccccc3c2)[C@]2(C)[C@H](C)CC[C@]3(CCC(=O)[C@H]32)[C@@H](C)[C@@H]1O [Compound 18, (E)-2-(((3aR,4R,5R,7S,8S,9R,9aS,12R)-8-hydroxy-4,7,9,12-tetramethyl-3-oxo-7-vinyldecahydro-4,9a-propanocyclopenta[8]annulen-5-yl)oxy)-2-oxoethyl 3-(naphthalen-2-yl)acrylate]								
> 256 µg/mL	> 256 µg/mL	128 µg/mL (≈ 222 µM)	64 µg/mL (≈ 111 µM)	32 µg/mL (≈ 55.5 µM)	64 µg/mL (≈ 111 µM)	C=C[C@]1(C)C[C@@H](OC(=O)COC(=O)/C=C/c2ccccc2C(F)(F)F)[C@]2(C)[C@H](C)CC[C@]3(CCC(=O)[C@H]32)[C@@H](C)[C@@H]1O [Compound 21]								
64 µg/mL (≈ 104 µM)	> 256 µg/mL	128 µg/mL (≈ 208 µM)	32 µg/mL (≈ 52.1 µM)	16 µg/mL (≈ 26 µM)	32 µg/mL (≈ 52.1 µM)	C=C[C@]1(C)C[C@@H](OC(=O)COC(=O)/C=C/c2cccc(OCc3ccccc3)c2)[C@]2(C)[C@H](C)CC[C@]3(CCC(=O)[C@H]32)[C@@H](C)[C@@H]1O [Compound 13, (E)-2-(((3aR,4R,5R,8S,9R,12R)-8-hydroxy-4,7,9,12-tetramethyl-3-oxo-7-vinyldecahydro-4,9a-propanocyclopenta[8]annulen-5-yl)oxy)-2-oxoethyl 3-(3-(benzyloxy)phenyl)acrylate]								as much as tiamulin
> 256 µg/mL	128 µg/mL (≈ 252 µM)	32 µg/mL (≈ 62.9 µM)	16 µg/mL (≈ 31.5 µM)	4 µg/mL (≈ 7.86 µM)	16 µg/mL (≈ 31.5 µM)	C=C[C@]1(C)C[C@@H](OC(=O)COC(=O)/C=C/c2ccccc2)[C@]2(C)[C@H](C)CC[C@]3(CCC(=O)[C@H]32)[C@@H](C)[C@@H]1O [Compound 3, 2-(((3aR,4R,5R,8S,9R,12R)-8-hydroxy-4,7,9,12-tetramethyl-3-oxo-7-vinyldecahydro-4,9a-propanocyclopenta[8]annulen-5-yl)oxy)-2-oxoethyl cinnamate]								
> 256 µg/mL	128 µg/mL (≈ 215 µM)	64 µg/mL (≈ 108 µM)	16 µg/mL (≈ 26.9 µM)	8 µg/mL (≈ 13.5 µM)	16 µg/mL (≈ 26.9 µM)	C=C[C@]1(C)C[C@@H](OC(=O)COC(=O)/C=C/c2ccc(C(F)(F)F)cc2F)[C@]2(C)[C@H](C)CC[C@]3(CCC(=O)[C@H]32)[C@@H](C)[C@@H]1O [Compound 19, (E)-2-(((3aR,4R,5R,8S,9R,12R)-8-hydroxy-4,7,9,12-tetramethyl-3-oxo-7-vinyldecahydro-4,9a-propanocyclopenta[8]annulen-5-yl)oxy)-2-oxoethyl 3-(2-fluoro-4-(trifluoromethyl)phenyl)acrylate]								
						C=C[C@]1(C)C[C@@H](OC(=O)COC(=O)/C=C/c2ccc(C#N)cc2)[C@]2(C)[C@H](C)CC[C@]3(CCC(=O)[C@H]32)[C@@H](C)[C@@H]1O [Compound 6, (E)-2-(((3aR,4R,5R,8S,9R,12R)-8-hydroxy-4,7,9,12-tetramethyl-3-oxo-7-vinyldecahydro-4,9a-propanocyclopenta[8]annulen-5-yl)oxy)-2-oxoethyl 3-(4-cyanophenyl)acrylate]	> 256 µg/mL	> 256 µg/mL	64 µg/mL (≈ 120 µM)	64 µg/mL (≈ 120 µM)	32 µg/mL (≈ 60 µM)	64 µg/mL (≈ 120 µM)		
> 256 µg/mL	64 µg/mL (≈ 111 µM)	128 µg/mL (≈ 222 µM)	8 µg/mL (≈ 13.9 µM)	16 µg/mL (≈ 27.7 µM)	16 µg/mL (≈ 27.7 µM)	C=C[C@]1(C)C[C@@H](OC(=O)COC(=O)/C=C/c2ccc(C(F)(F)F)cc2)[C@]2(C)[C@H](C)CC[C@]3(CCC(=O)[C@H]32)[C@@H](C)[C@@H]1O [Compound 15, (E)-2-(((3aR,4R,5R,8S,9R,12R)-8-hydroxy-4,7,9,12-tetramethyl-3-oxo-7-vinyldecahydro-4,9a-propanocyclopenta[8]annulen-5-yl)oxy)-2-oxoethyl 3-(4-(trifluoromethyl)phenyl)acrylate]							better than that of the positive controls	
128 µg/mL (≈ 243 µM)	128 µg/mL (≈ 243 µM)	32 µg/mL (≈ 60.8 µM)	32 µg/mL (≈ 60.8 µM)	16 µg/mL (≈ 30.4 µM)	32 µg/mL (≈ 60.8 µM)	C=C[C@]1(C)C[C@@H](OC(=O)COC(=O)/C=C/c2ccc(F)cc2)[C@]2(C)[C@H](C)CC[C@]3(CCC(=O)[C@H]32)[C@@H](C)[C@@H]1O [Compound 11, (E)-2-(((3aR,4R,5R,8S,9R,12R)-8-hydroxy-4,7,9,12-tetramethyl-3-oxo-7-vinyldecahydro-4,9a-propanocyclopenta[8]annulen-5-yl)oxy)-2-oxoethyl 3-(4-fluorophenyl)acrylate]								
